Experimental data as given in patent publication US20240049707A1, “PESTICIDE COMPOSITIONS OF LICOCHALCONE C” (METABOLIC INSIGHTS LTD., priority 2020, published 2024).

Legend:
Sclerotinia sclerotiorum = experiment: Microplate based screening of bioactivity against Sclerotinia sclerotiorum; format: cell-based; conditions: 10 μl of 250 ppm solution + 40 μl inoculum, activity grade x repeats x days of activity/252 x 100
Method: Diluted in DMSO purified Licochalcone C was added to microplate wells and mixed with 50 μl of hyphae suspension and growth of the fungus starting from blended hyphae was monitored by visual inspection. Dilute the inoculum stock 1:10 in PDBC—2 ml in 20 ml, or calculate the dilution needed, to prepare final concentration of 2000 CFU/ml. The final number of hyphae should be 100 CFU in each well. Microplate Preparation for Activity Experiment: • 1) Take a stock solution of purified 1% Licochalcone C in DMSO from the −20 freezer and thaw it on the bench. • 2) Take 1 μl of stock solution of 1% Licochalcone C and dilute up to 250 ppm with 39 μl of water. • 3) Take 10 μl of the diluted (250 ppm) Licochalcone C solution into the wells of the microplate using a multi-pipette. • 4) Add 40 μl of vigorously mixed spore suspension inoculum to the wells of the microplate using a multi-pipette. • 5) Seal the plate with transparent sealer • 6) Shake the plate for 10 min at 2000 RPM to mix the Licochalcone C with the hyphae suspension • 7) Centrifugate the plate at 1000RCF for is and stop to collect the liquid at the bottom of the plate. • 8) Collect the plates on the bench until all microplates are ready for incubation. • 9) Insert microplates into a plastic box and put the box in the incubator at 21° C. […]

Rhizoctonia solani = experiment: Microplate based assay of bioactivity against Rhizoctonia solani; format: cell-based; conditions: 10 μl of 250 ppm solution + 40 μl inoculum, activity grade x repeats x days of activity/252 x 100
Method: Diluted in DMSO Licochalcone C was added to microplate wells and mixed with 50 μl of hyphae suspension and growth of the fungus, starting from blended hyphae, was monitored by plate reader and visual inspection. Inoculum Preparation of Rhizoctonia solani Hyphae: The concentration of the suspension should be 4×10^4 CFU/ml (diluted 10-fold concentration should be 4000 CFU/ml). Dilute the inoculum stock 1:20 in PDBC—1 ml in 20 ml, or calculate the dilution needed, to prepare final concentration of 2000 CFU/ml. The amount in each well should be about 100 CFU. […] Screening of Plates: • 1) Screen plate at […]: 3d, 7d, 14d and 21d following the assay start • 2) Calculate the difference of absorbance between each screen and the read at zero time • 3) Calculate the percentage of growth inhibition of each well at each time point. […]

How did the “Relative Activity value (%)” value (Sclerotinia sclerotiorum) turn out when `COc1c(/C=C/C(=O)c2ccc(O)cc2)ccc(O)c1CC=C(C)C` [Licochalcone C, (E)-3-[4-hydroxy-2-methoxy-3-(3-methylbut-2-enyl)phenyl]-1-(4-hydroxyphenyl)prop-2-en-1-one] was run?
The value was 13%.

What about the “Relative Activity value (%)” value (Rhizoctonia solani) of the same compound?
Its value is 100%.
